Results on 11 compounds are retold here after patent publication US4210749A, “Substituted 1,2,4,5-tetrahydro-3H,3 benzazepines” (priority 1979, dated 1980).

One may read the ED50 as the dose that gives a 50% effect, or the effect in half of the subjects. Broadly, the LD50 is the dose at which mortality reaches 50%. Read a low LD50 as greater toxicity.

Structures can show the parent of a compound that is named as a salt.

Assay type in all cases: in vivo
The nature of series [1]: Analgesic activity, writhing method.
A short description of series [2]: Analgesic activity, hot plate method. In general terms: Thermal pain tests record how soon the animal reacts.
Series [3] is described as follows: I.P. symptomatology (highest tolerated dose, median lethal dose), Table IV. The conditions noted are these: in vivo, ip; for MTD: read-out: HTD (highest tolerated dose).
The next series concerns sciatic block. Nature of the series: Local anesthetic sciatic block, Table IV. The conditions noted are these: 1%.
A short description of series [4]: Narcotic antagonism I.P., Table IV.

As for `COc1ccc2c3c1O[C@H]1[C@@H](O)C=C[C@H]4[C@@H](C2)N(C)CC[C@@]341` [Codeine, reference compound], the median effective dose (ED50) in series [1] (po) was 17 mg/kg; in series [2] (ip), 12 mg/kg; in series [2] (po), 20 mg/kg.
`C=CCN1CCc2ccc(O)cc2CC1` [Example 11, 3-Allyl-7-hydroxy-1,2,4,5-tetrahydro-3H,3-benzazepine] returned a median lethal dose (LD50) in series [3] of 50 mg/kg. In addition, the MTD in series [3] is 20 mg/kg. Further, the “Local Anesthetic Sciatic Block” value in the series on sciatic block was “Positive”. In addition, the ED50 in series [1] (po) was over 316 mg/kg; in series [2] (ip), 35 mg/kg; in series [2] (po) it was over 316 mg/kg. For the same compound, in series [4], the “Narcotic Antagonism” value is “Positive”.
Regarding `COc1ccc2c(c1)CCN(CC1CCCC1)CC2` [Example 12, 3-Cyclopentylmethyl-7-methoxy-1,2,4,5-tetrahydro-3H,3-benzazepine], the values for the ED50 in series [1] (po), in series [2] (ip) and in series [2] (po) were over 178 mg/kg, 45 mg/kg and over 178 mg/kg, respectively.
The compound `CCCN1CCc2ccc(OC)cc2CC1` [Example 22, 7-Methoxy-3-n-propyl-1,2,4,5-tetrahydro-3H,3-benzazepine] registered an LD50 in series [3] of 50 mg/kg. For the same compound, the MTD in series [3] amounted to 30 mg/kg. For the same compound, the 50% effective dose (ED50) is over 316 mg/kg in series [1] (po), over 32 mg/kg in series [1] (sc), 26 mg/kg in series [2] (ip) and over 316 mg/kg in series [2] (po). For the same compound, the “Narcotic Antagonism” value in series [4] is recorded as “Positive”.
As for `COc1ccc2c(c1)CC(C)NCC2` (centres unmarked) [Example 32, 8-Methoxy-2-methyl-1,2,4,5-tetrahydro-3H,3-benzazepine], in series [3], the LD50 was about 60 mg/kg and the MTD was about 10 mg/kg. In the series with sciatic block, the “Local Anesthetic Sciatic Block” value was “Positive”. Besides, the “Narcotic Antagonism” value in series [4] is on record as “Negative”.
`COc1ccc2c(c1)CC(C)N(CC=Cc1ccccc1)CC2` (centres unmarked) [Example 44, 8-Methoxy-2-methyl-3-(3-phenylallyl)-1,2,4,5-tetrahydro-3H,3-benzazepine hydrochloride]: in series [3], the median lethal dose (LD50) was 60 mg/kg and the MTD was determined as 10 mg/kg. In the series on sciatic block, the “Local Anesthetic Sciatic Block” value is “Insoluable”. Also, in series [4], the “Narcotic Antagonism” value is reported as “Negative”.
With `COc1ccc2c(c1)CC(C)N(CCc1ccc(O)cc1)CC2` (centres unmarked) [Example 58, 3-(P-Hydroxyphenethyl-8-methoxy-2-methyl-1,2,4,5-tetrahydro-3H,3-benzazepine hydrochloride], in series [3], the LD50 is over 300 mg/kg and the MTD was found to be 1 mg/kg. In the series on sciatic block, the “Local Anesthetic Sciatic Block” value was “Insoluble”. Besides, the “Narcotic Antagonism” value in series [4] is recorded as “Negative”.
Consider `COc1ccc2c(c1)CC(C)N(CCc1ccccc1C)CC2` (centres unmarked) [Example 59, 3-(o-Methylphenethyl)-8-methoxy-2-methyl-1,2,4,5-tetrahydro-3H,3-benzazepine hydrochloride], for which, in series [3], the median lethal dose (LD50) was about 60 mg/kg and the MTD came to 0.3 mg/kg. Besides, in the series with sciatic block, the “Local Anesthetic Sciatic Block” value is listed as “Insoluble”. Besides, in series [4], the “Narcotic Antagonism” value is “Negative”.
Consider `Oc1ccc2c(c1)CCN(Cc1ccco1)CC2` [Example 60, 3-Furfuryl-7-hydroxy-1,2,4,5-tetrahydro-3H,3-benzazepine hydrochloride], for which, in series [3], the LD50 is about 200 mg/kg and the MTD came out at 10 mg/kg. Moreover, the “Local Anesthetic Sciatic Block” value with sciatic block was “Positive”. The “Narcotic Antagonism” value in series [4] is “Negative”.
Consider `COc1ccc(CCN2CCc3ccc(OC)cc3CC2C)cc1` (centres unmarked) [Example 61, 8-Methoxy-3-(p-methoxyphenethyl-2-methyl-1,2,4,5-tetrahydro-3H,3-benzazepine hydrochloride], for which, in series [3], the median lethal dose (LD50) was about 60 mg/kg and the MTD is 3 mg/kg. Further, the “Local Anesthetic Sciatic Block” value in the series with sciatic block is listed as “Positive”. In addition, in series [4], the “Narcotic Antagonism” value is “Negative”.
For `CN1CC[C@]23c4c5ccc(O)c4O[C@H]2[C@@H](O)C=C[C@H]3[C@H]1C5` [Morphine, reference compound], the “Writhing ED50” value in series [1] (PO) is reported as 3 mg/kg. The entries for the “Hot Plate ED50” value in series [2] (IP) and in series [2] (PO) were 2.5 mg/kg and 14 mg/kg, respectively.
